Like-named read-outs stand apart in the source and are kept apart here.

Assay [1] relates to cucumber gray mold fungus (Botrytis cinerea). The assay can be described thus: Preventive test against gray mold on cucumber cotyledon leaves, spray treatment, preventive value and Colby expected value (Test Examples 1-4). It is filed as in vivo. The settings on record: single compound; for pest or weed control at 100 ppm / pest or weed control at 3 ppm / pest or weed control at 10 ppm / pest or weed control at 50 ppm / pest or weed control at 5 ppm / pest or weed control at 35 ppm / pest or weed control at 8 ppm / pest or weed control at 25 ppm: Botrytis cinerea, 72 h; for pest or weed control at 3 ppm: 3 ppm spray; for pest or weed control at 35 ppm: 35 ppm spray; for pest or weed control at 8 ppm: 8 ppm spray; for pest or weed control at 25 ppm: 25 ppm spray. As to the method: Using the following compound listed in Table 2 (the active ingredient A) and the compound listed in Table 5 through Table 15 (active ingredient B), an agent was prepared in accordance with the above Formulation Example. This agent was diluted with water to a predetermined concentration to obtain a test solution. Then, cucumber (variety: Sagami-hanjiro) was planted in a plastic pot of 90 cm^3, and in the cotyledon stage, 5 ml of the obtained test solution, was sprayed by a spray gun and air-dried. Thereafter, the treated leaf was cut off and placed in a plastic container which filled approximately 0.5 cm in depth water. A suspension of conidia of cucumber gray mold fungus (Botrytis cinerea) and a dissolved PDA culture medium were mixed at a ratio of 1:1 (mass ratio), and the mixture was dropped to inoculate the treated leaf with 30 μl. After the inoculation, the plastic container was sealed and left at 20° C. for 3 days, the ratio of the formed lesion occupying the inoculated leaf was measured, and the preventive value was calculated in accordance with the following calculation formula. Preventive value=[1−(treated plot lesion area ratio/untreated plot lesion area ratio)]×100
Further, from the preventive value at each agent concentration, synergy was calculated by using the Colby method (Colby S. R. 1976, Weeds 15, 20-22). The calculation method is as follows. E=X+Y−XY/100
X: preventive value of A agent at x concentration
Y: preventive value of B agent at y concentration
E: theoretical value expected by treatment of the mixture of A agent and B agent.
The obtained result is analyzed to be synergy if the observed value is larger than the expected value, to be antagonism if the expected value is larger than the observed value, and to be an additive effect if the observed value and the expected value are the same.
Using the following compound listed in Table 2 (active ingredient A) and the following compound listed in Table 5 through Table 15 (active ingredient B) as active ingredients, a preventive test against gray mold was conducted in accordance with the method described in Test Example 1.
Using the following compound listed in Table 2 (active ingredient A) and the following compound listed in Table 5 or Table 6 (active ingredient B) as active ingredients, a preventive test against gray mold was conducted in accordance with the method described in Test Example 1.
Using the following compound listed in Table 2 (active ingredient A) and the following compound listed in Table 6 through Table 16 (active ingredient B) as active ingredients, a preventive test against gray mold was conducted in accordance with the method described in Test Example 1.

In assay [2] the test system is wheat glume blotch (Leptosphaeria nodorum). The assay can be described thus: Efficacy test on wheat glume blotch, spray treatment and prevention test (Test Example 8). The settings on record: spray, lesion area ratio. It is filed as in vivo. The method, then:
An agent comprising the following compound listed in Table 2 (active ingredient A) and the following compound listed in Table 6, Table 11 or Table 15 (active ingredient B) as active ingredients, was prepared in accordance with the above Formulation Example. This agent was diluted with water to a predetermined concentration to obtain a test solution. Then, to seedlings of wheat (variety: Haruyutaka) at the 1-leaf stage, seeded in a pot with a diameter of 7 cm, with 5 seeds per pot, and grown for 7 days, the test solution was applied by a spray gun in an amount of 5 ml per pot, for treatment. One day after the treatment, a spore suspension (1×100,000 cfu/ml) of wheat glume blotch (Leptosphaeria nodorum) was spray-inoculated, and the pot was placed in a moist chamber set in temperature of 20° C. and humidity more than 95% RH for 48 hours. After placing the pot in a glass greenhouse for 7 days, the ratio of the formed lesion area occupying the inoculated leaves was measured, and the preventive value was calculated in accordance with the following formula. Preventive value=[1−(treated plot lesion area ratio/untreated plot lesion area ratio)]×100
Further, from the preventive value for each agent concentration, synergy was calculated by using the Colby method (Colby S. R. 1976, Weeds 15, 20-22).

The mark [3] stands for this setting: Test Example 4, 100 ppm spray, read-out: Preventive value.
Setting [4] is: Test Example 1, read-out: Preventive value.
The mark [5] stands for this setting: Test Example 2, read-out: Preventive value.
The mark [6] stands for this setting: Test Example 4, 50 ppm spray, read-out: Preventive value.
[7] abbreviates: Test Example 4, 10 ppm spray, read-out: Preventive value.

Turning to `Cn1cc(C(=O)Nc2cccc3c2[C@@H]2CC[C@H]3C2=C(Cl)Cl)c(C(F)F)n1` (racemic) [C01, benzovindiflupyr], the Preventive value in assay [1] (Test Example 3, 5 ppm spray) is reported as 60. On to `C[C@@]1(c2ccc(Oc3ccccc3)cc2)OC(=O)N(Nc2ccccc2)C1=O` (racemic) [C23, famoxadone], for which, in assay [1] (setting [3]), the pest or weed control at 100 ppm is 35%. `Fc1ccc([C@]2(Cn3cncn3)O[C@H]2c2ccccc2Cl)cc1` (racemic) [Compound No. H10, epoxiconazole]: the Preventive value in assay [1] (Test Example 1, 10 ppm spray) was 60; in assay [1] (Test Example 2, 10 ppm spray), 50; in assay [2] (single compound 1 ppm), 50. As to `CCCCNC(=O)n1c(NC(=O)OC)nc2ccccc21` [B01, benomyl], the pest or weed control at 3 ppm amounted to 50% in assay [1] (setting [4]) and 45% in assay [1] (setting [5]). Turning to `COC(=O)NC(=S)Nc1ccccc1NC(=S)NC(=O)OC` [B05, thiophanate-methyl], the pest or weed control at 10 ppm in assay [1] (Test Example 3, 10 ppm spray, read-out: Preventive value) was 60%. As to `CCOc1ccc(NC(=O)OC(C)C)cc1OCC` [B06, diethofencarb], in assay [1] (read-out: Preventive value, Test Example 3, 50 ppm spray), the pest or weed control at 50 ppm was found to be 45%. Consider `Cn1cc(C(=O)Nc2ccc(F)cc2-c2ccc(Cl)c(Cl)c2)c(C(F)F)n1` [C02, bixafen], for which, in assay [1] (Test Example 3, 50 ppm spray), the Preventive value is on record as 70.

Consider `O=C(Nc1ccccc1-c1ccc(Cl)cc1)c1cccnc1Cl` [C03, boscalid], for which the pest or weed control at 3 ppm in assay [1] (setting [4]) amounted to 60%; in assay [1] (setting [5]) it was 58%. With `O=C(NCCc1ncc(C(F)(F)F)cc1Cl)c1ccccc1C(F)(F)F` [C06, fluopyram], the pest or weed control at 5 ppm in assay [1] (Test Example 3, 5 ppm spray) was 63%. With `CC(C)Oc1cccc(NC(=O)c2ccccc2C(F)(F)F)c1` [C07, flutolanil], the pest or weed control at 100 ppm in assay [1] (Test Example 3, 100 ppm spray, read-out: Preventive value) is 50%. On to `Cn1cc(C(=O)Nc2ccccc2-c2cc(F)c(F)c(F)c2)c(C(F)F)n1` [C08, fluxapyroxad], for which, in assay [1] (Test Example 3, 1 ppm spray), the Preventive value turned out to be 65. For `Cc1nn(C)c(Cl)c1C(=O)Nc1cccc2c1C(C)OC2(C)C` (stereo not shown) [C09, furametpyr], the Preventive value in assay [1] (Test Example 3, 100 ppm spray) was 55. As for `Cc1cc(OC(C)C)ccc1C(=O)C(C)(C)NC(=O)c1sccc1C` [C10, isofetamid], the Preventive value in assay [1] (Test Example 3, 5 ppm spray) was determined as 45.

For `Cc1ccccc1C(=O)Nc1cccc(OC(C)C)c1` [C12, mepronil], in assay [1] (read-out: Preventive value, Test Example 3, 10 ppm spray), the pest or weed control at 10 ppm amounted to 60%. On to `Cc1nn(C)c(F)c1C(=O)Nc1ccccc1C(C)CC(C)C` (stereo not shown) [C14, penflufen], for which the Preventive value in assay [1] (Test Example 3, 100 ppm spray) is recorded as 65. As for `CC(C)CC(C)c1sccc1NC(=O)c1cn(C)nc1C(F)(F)F` (stereo not shown) [C15, penthiopyrad], the pest or weed control at 5 ppm in assay [1] (Test Example 3, 5 ppm spray) amounted to 60%. For `Cn1cc(C(=O)Nc2ccccc2C2CC2C2CC2)c(C(F)F)n1` (stereo not shown) [C16, sedaxane], the Preventive value in assay [1] (Test Example 3, 10 ppm spray) is 50. Regarding `CO/N=C(/C(=O)OC)c1ccccc1COc1ccccc1C` [C28, kresoxim-methyl], the pest or weed control at 10 ppm in assay [1] (Test Example 1, 10 ppm spray, read-out: Preventive value) was found to be 45%; in assay [1] (Test Example 2, 10 ppm spray, read-out: Preventive value), 56%. Further, the pest or weed control at 5 ppm in assay [2] (Parastagonospora nodorum, single compound 5 ppm, read-out: Preventive value) came to 45%. As to `CNC(=O)/C(=N/OC)c1ccccc1CO/N=C(C)/C(=N/OC)C(/C)=N/OC` [C31, orysastrobin], in assay [1] (Test Example 4, 50 ppm spray), the Preventive value is given as 40. For the compound `O=[N+]([O-])c1cc(C(F)(F)F)c(Cl)c([N+](=O)[O-])c1Nc1ncc(C(F)(F)F)cc1Cl` [C43, fluazinam], the pest or weed control at 50 ppm in assay [1] (setting [6]) turned out to be 45%. Take `N#Cc1c[nH]cc1-c1cccc2c1OC(F)(F)O2` [Compound No. E04, fludioxonil]: the pest or weed control at 3 ppm in assay [1] (read-out: Preventive value, Test Example 1) is 60%; in assay [1] (read-out: Preventive value, Test Example 2) it was 58%.

For `CC(C)NC(=O)N1CC(=O)N(c2cc(Cl)cc(Cl)c2)C1=O` [Compound No. F01, iprodione], the values for the pest or weed control at 35 ppm in assay [1] (Test Example 1) and in assay [1] (Test Example 2) were 50% and 48%, respectively. On to `Cc1cc(C2CC2)nc(Nc2ccccc2)n1` [D1, cyprodinil], for which, in assay [1] (setting [6]), the pest or weed control at 50 ppm came out at 50%.

For `CC#Cc1cc(C)nc(Nc2ccccc2)n1` [D2, mepanipyrim], the figures for the pest or weed control at 8 ppm in assay [1] (Test Example 1) and in assay [1] (Test Example 2) were 55% and 56%, respectively. In the case of `Fc1ccc(Oc2ccnc3cc(Cl)cc(Cl)c23)cc1` [E02, quinoxyfen], in assay [1] (setting [3]), the pest or weed control at 100 ppm was determined as 5%. For `CC12CC1(C)C(=O)N(c1cc(Cl)cc(Cl)c1)C2=O` (stereo not shown) [F02, procymidone], the pest or weed control at 10 ppm in assay [1] (setting [7]) came to 55%. As to `COc1cc(Cl)c(OC)cc1Cl` [G06, chloroneb], the pest or weed control at 100 ppm in assay [1] (read-out: Preventive value, Test Example 4, 100 ppm spray) was found to be 35%. On to `CC(C1CC1)C(O)(Cn1cncn1)c1ccc(Cl)cc1` (stereo not shown) [H05, cyproconazole], for which the pest or weed control at 10 ppm in assay [1] (setting [7]) came out at 45%. Regarding `CC1COC(Cn2cncn2)(c2ccc(Oc3ccc(Cl)cc3)cc2Cl)O1` (stereo not shown) [H07, difenoconazole], the pest or weed control at 10 ppm in assay [1] (setting [7]) is 50%. Still for that read-out and setting: the same measure for `OC(c1ccc(Cl)cc1)(c1cncnc1)c1ccccc1Cl` (stereo not shown) [H12, fenarimol]: 55%; for `O=c1c2cc(F)ccc2nc(-n2cncn2)n1-c1ccc(Cl)cc1Cl` [H15, fluquinconazole]: 55%; for `C[Si](Cn1cncn1)(c1ccc(F)cc1)c1ccc(F)cc1` [H16, flusilazole]: 50%. In the case of `OC(Cn1cncn1)(c1ccc(F)cc1)c1ccccc1F` (stereo not shown) [H17, flutriafol], the pest or weed control at 10 ppm in assay [1] (setting [7]) worked out at 45%. As for `CCCC(Cn1cncn1)c1ccc(Cl)cc1Cl` (stereo not shown) [H28, penconazole], in assay [1] (setting [7]), the pest or weed control at 10 ppm stood at 45%. Take `FC(F)C(F)(F)OCC(Cn1cncn1)c1ccc(Cl)cc1Cl` (stereo not shown) [H36, tetraconazole]: in assay [1] (setting [7]), the pest or weed control at 10 ppm worked out at 55%.

For `CC(Cc1ccc(C(C)(C)C)cc1)CN1CCCCC1` (stereo not shown) [H44, fenpropidin], the pest or weed control at 100 ppm in assay [1] (setting [3]) is 35%. `CC(Cc1ccc(C(C)(C)C)cc1)CN1C[C@@H](C)O[C@@H](C)C1` (stereo partly shown) [H45, fenpropimorph]: the pest or weed control at 100 ppm in assay [1] (setting [3]) is 10%. `CC1(C(=O)Nc2ccc(O)c(Cl)c2Cl)CCCCC1` [H49, fenhexamid]: the pest or weed control at 25 ppm in assay [1] (Test Example 1) came out at 30%; in assay [1] (Test Example 2) it was 25%. In the case of `O=C1c2ccccc2C(=O)N1SC(Cl)(Cl)Cl` [L24, folpet], in assay [1] (setting [3]), the pest or weed control at 100 ppm is 45%. For the compound `O=C(Cc1ccccc1)N/C(=N\OCC1CC1)c1c(C(F)(F)F)ccc(F)c1F` [M01, cyflufenamid], the pest or weed control at 100 ppm in assay [1] (setting [3]) worked out at 15%. Same read-out and setting: the same measure for `COc1cc(C)c(C(=O)c2c(OC)ccc(Br)c2C)c(OC)c1OC` [M09, metrafenone]: 5%.

Consider mancozeb [L16], for which the Preventive value in assay [1] (Test Example 4, 100 ppm spray) came to 45.

Source of the values: patent US9974305B2, “Fungicidal or bactericidal composition, and method for controlling diseases” (NISSAN CHEMICAL INDUSTRIES, LTD., priority 2014, dated 2018).
